Measurements as given in the supplement of paper PMC10307832.

Assays:
Test in all cases: relative viability (nuclei count vs DMSO), 5 days (fraction); higher = more cells survive
Pictilisib + Navitoclax = compound: CS(=O)(=O)N1CCN(Cc2cc3nc(-c4cccc5[nH]ncc45)nc(N4CCOCC4)c3s2)CC1 [Pictilisib] + CC1(C)CCC(c2ccc(Cl)cc2)=C(CN2CCN(c3ccc(C(=O)NS(=O)(=O)c4ccc(N[C@H](CCN5CCOCC5)CSc5ccccc5)c(S(=O)(=O)C(F)(F)F)c4)cc3)CC2)C1 [Navitoclax] (partner 0.5 µM)
In short: (§1)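 Medians of duplicate plates are given as relative viability. That measure is the nuclei count in treated wells divided by the count in vehicle wells. Counts were taken on 4× images of lung cancer cell lines in 1536-well plates, 5 days after pin-tool dosing the day after seeding with one drug alone or a fixed anchor-drug dose plus five library-drug doses (not always all listed) in √10 steps.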

MK-2206 + Decitabine = compound: NC1(c2ccc(-c3nc4ccn5c(=O)[nH]nc5c4cc3-c3ccccc3)cc2)CCC1 [MK-2206] + Nc1ncn([C@H]2C[C@H](O)[C@@H](CO)O2)c(=O)n1 [Decitabine] (partner 2 µM)
In short: as §1

MK-2206 + Luminespib = compound: NC1(c2ccc(-c3nc4ccn5c(=O)[nH]nc5c4cc3-c3ccccc3)cc2)CCC1 [MK-2206] + CCNC(=O)c1noc(-c2cc(C(C)C)c(O)cc2O)c1-c1ccc(CN2CCOCC2)cc1 [Luminespib] (partner 0.01 µM)
In short: as §1

Pictilisib + Palbociclib = compound: CS(=O)(=O)N1CCN(Cc2cc3nc(-c4cccc5[nH]ncc45)nc(N4CCOCC4)c3s2)CC1 [Pictilisib] + CC(=O)c1c(C)c2cnc(Nc3ccc(N4CCNCC4)cn3)nc2n(C2CCCC2)c1=O [Palbociclib] (partner 0.5 µM)
In short: as §1

MK-2206 + Foretinib = compound: NC1(c2ccc(-c3nc4ccn5c(=O)[nH]nc5c4cc3-c3ccccc3)cc2)CCC1 [MK-2206] + COc1cc2c(Oc3ccc(NC(=O)C4(C(=O)Nc5ccc(F)cc5)CC4)cc3F)ccnc2cc1OCCCN1CCOCC1 [Foretinib] (partner 0.25 µM)
In short: as §1

Row | Cell Line | relative viability (Pictilisib + Navitoclax; first compound 0.02 µM) | relative viability (Pictilisib + Navitoclax; first compound 0.06325 µM) | relative viability (Pictilisib + Navitoclax; first compound 0.6325 µM) | relative viability (Pictilisib + Navitoclax; first compound 2 µM) | relative viability (MK-2206 + Decitabine; first compound 0.01 µM) | relative viability (MK-2206 + Decitabine; first compound 0.03162 µM) | relative viability (MK-2206 + Decitabine; first compound 0.3162 µM) | relative viability (MK-2206 + Decitabine; first compound 1 µM) | relative viability (MK-2206 + Luminespib; first compound 0.01 µM) | relative viability (MK-2206 + Luminespib; first compound 0.03162 µM) | relative viability (MK-2206 + Luminespib; first compound 0.3162 µM) | relative viability (MK-2206 + Luminespib; first compound 1 µM) | relative viability (Pictilisib + Palbociclib; first compound 0.02 µM) | relative viability (Pictilisib + Palbociclib; first compound 0.06325 µM) | relative viability (Pictilisib + Palbociclib; first compound 0.6325 µM) | relative viability (Pictilisib + Palbociclib; first compound 2 µM) | relative viability (MK-2206 + Foretinib; first compound 0.01 µM) | relative viability (MK-2206 + Foretinib; first compound 0.3162 µM) | relative viability (MK-2206 + Foretinib; first compound 1 µM) | relative viability (MK-2206 + Foretinib; first compound 0.03162 µM)
1 | HCC-44 | 0.974 | 0.848 | 0.866 | 0.622 | 0.959 | 0.968 | 0.934 | 0.908 | 1.05 | 1.2 | 1.21 | 1.09 | 1.02 | 1.01 | 0.955 | 0.977 | – | – | – | –
2 | HCC-78 | 0.809 | 0.594 | 0.45 | 0.231 | 0.678 | 0.666 | 0.643 | 0.699 | – | – | – | – | 0.566 | 0.481 | 0.403 | 0.361 | 0.557 | 0.496 | 0.459 | –
3 | HCC-366 | 1.04 | 1.06 | 0.908 | 0.195 | 0.358 | 0.334 | 0.339 | 0.32 | – | – | – | – | 0.434 | 0.305 | 0.133 | 0.0473 | 0.924 | 0.869 | 0.975 | 1.03
4 | HCC-827 | 1.11 | 0.978 | 1.02 | 0.865 | 0.347 | 0.256 | 0.276 | 0.228 | 0.638 | 0.723 | 0.421 | 0.636 | 0.517 | 0.415 | 0.234 | 0.188 | 1.13 | 0.945 | 0.984 | 1.05
5 | HOP-62 | 0.955 | 1.1 | 1.06 | 1.01 | 0.202 | 0.227 | 0.237 | 0.255 | 0.91 | 0.899 | 0.919 | 0.854 | 0.526 | 0.423 | 0.399 | 0.287 | 1.09 | 1.15 | 1.06 | 1.16
6 | IA-LM | 0.777 | 0.898 | 0.766 | 0.309 | – | – | – | – | – | – | – | – | – | – | – | – | 1.06 | 1.07 | 1.19 | 1.11
7 | LC-2-ad | 0.606 | 0.415 | 0.17 | 0.143 | 0.748 | 0.79 | 0.859 | 0.881 | 1.01 | 1.01 | 1.24 | 1.08 | 0.486 | 0.532 | 0.298 | 0.265 | 0.864 | 0.846 | 0.889 | 0.952
8 | LCLC-103H | – | – | – | – | 0.721 | 0.755 | 0.735 | 0.691 | 0.983 | 1.06 | 0.975 | 0.89 | 0.525 | 0.485 | 0.44 | 0.351 | 0.867 | 0.669 | 0.698 | 0.792
9 | NCI-H358 | – | – | – | – | 0.216 | 0.208 | 0.201 | 0.217 | 0.0868 | 0.829 | 0.234 | 0.318 | 0.116 | 0.165 | 0.121 | 0.115 | 0.767 | 0.661 | 0.685 | 0.841
10 | NCI-H522 | – | – | – | – | 0.701 | 0.677 | 0.612 | 0.654 | 1.28 | 1.31 | 1.17 | 1.19 | 1.07 | 0.785 | 0.833 | 0.692 | – | – | – | –
11 | NCI-H596 | 0.736 | 0.835 | 0.645 | 0.206 | 1.03 | 1.03 | 0.99 | 0.914 | 0.984 | 0.919 | 0.889 | 0.737 | – | – | – | – | 1.02 | 0.677 | 0.77 | 0.921
12 | NCI-H650 | – | – | – | – | 0.344 | 0.306 | 0.347 | 0.284 | 0.747 | 0.86 | 0.897 | 0.788 | 0.323 | 0.308 | 0.271 | 0.265 | 0.935 | 1.05 | 1.13 | 1.13
13 | NCI-H661 | – | – | – | – | 0.538 | 0.574 | 0.591 | 0.528 | 0.93 | 0.884 | 0.968 | 0.947 | 0.446 | 0.384 | 0.347 | 0.299 | 1.01 | 1.01 | 0.986 | 1.09
14 | NCI-H1299 | 1.09 | 1.05 | 1.1 | 1.13 | – | – | – | – | – | – | – | – | – | – | – | – | 1.15 | 1.15 | 1.16 | 1.06
15 | NCI-H1563 | – | – | – | – | – | – | – | – | 0.528 | 0.518 | 0.577 | 0.477 | – | – | – | – | 0.882 | 0.832 | 0.769 | 0.988
16 | NCI-H1623 | – | – | – | – | – | – | – | – | 0.499 | 0.526 | 0.492 | 0.458 | – | – | – | – | 0.844 | 0.795 | 0.832 | 0.958
17 | NCI-H1648 | – | – | – | – | 0.405 | 0.574 | 0.483 | 0.575 | – | – | – | – | 0.248 | 0.236 | 0.256 | 0.216 | – | – | – | –
18 | NCI-H1703 | 1.38 | 0.805 | 0.305 | 0.204 | – | – | – | – | – | – | – | – | – | – | – | – | 0.368 | 0.377 | 0.333 | 0.309
19 | NCI-H1792 | 0.641 | 0.728 | 0.383 | 0.226 | 0.6 | 0.577 | 0.581 | 0.458 | 0.467 | 0.455 | 0.473 | 0.394 | 0.62 | 0.693 | 0.512 | 0.34 | – | – | – | –
20 | NCI-H2228 | 0.948 | 0.563 | 0.59 | 0.181 | – | – | – | – | 0.167 | 0.188 | 0.14 | 0.145 | 0.64 | 1.04 | 0.492 | 0.282 | 0.761 | 0.614 | 0.467 | 0.811
21 | NCI-H2342 | – | – | – | – | 0.687 | 0.792 | 0.787 | 0.629 | 0.751 | 0.655 | 0.77 | 0.677 | 0.515 | 0.507 | 0.444 | 0.403 | 0.985 | 1 | 0.901 | 1.13
22 | SW 900 | – | – | – | – | 0.449 | – | 0.399 | 0.391 | 0.167 | 0.197 | 0.175 | 0.17 | 0.543 | 0.58 | 0.358 | 0.252 | 0.864 | 0.882 | 0.769 | 0.936
